Here are results for 26 molecules from US20220324835A1 (Nurix Therapeutics, Inc., priority 2018, published 2022).

In this experiment the target is Cbl-b (Homo sapiens, UniProt Q13191). Nature of the experiment: Cbl-b activity assay (Cbl-b inhibition assay), TR-FRET of Cbl-b interaction with UbcH5B-Ub. In kind it is biochemical. The method, then:
The ability of candidate compounds to inhibit Cbl-b activity was measured by monitoring the interaction of Cbl-b with UbcH5B-Ub in the presence of the candidate compound.
Fluorescently labeled UbcH5B-Ub was prepared by conjugating ubiquitin (Ub), labeled at its N-terminus with Bodipy-Fluorescein, to UbcH5B, an E2 enzyme, harboring a cysteine to lysine mutation at position 85. […] After incubation in the presence of the candidate compound, the plate was incubated for an additional 1.5 hours in the presence of 60 nM Src kinase with 1 mM ATP and 5 mM MgCl2 (final concentrations). […] The plate was incubated for 1 hour.
Column marked with an asterisk (*) were tested as described above with assay buffer containing 50 mM NaCl instead of 100 mM NaCl and 30 nM Src kinase instead of 60 nM Src kinase. The resulting data for the Cbl-b binding assay was solvent corrected and double referenced prior to analysis. All data were globally fit to a steady-state affinity and kinetic binding model where applicable). Fit parameters were derived from a 1:1 binding model using the Biacore T200 Evaluation Software V2.0 (GE Healthcare) (Table 2).

The mark [1] stands for this setting: assay buffer with 100 mM NaCl, 60 nM Src kinase, read-out: Cbl-b activity IC50.
[2] abbreviates: * assay buffer containing 50 mM NaCl instead of 100 mM NaCl and 30 nM Src kinase instead of 60 nM, read-out: Cbl-b activity IC50 (μM)*.

Where two headings read alike, the source gives them in different places.

Sequence of Cbl-b (Q13191 36-427): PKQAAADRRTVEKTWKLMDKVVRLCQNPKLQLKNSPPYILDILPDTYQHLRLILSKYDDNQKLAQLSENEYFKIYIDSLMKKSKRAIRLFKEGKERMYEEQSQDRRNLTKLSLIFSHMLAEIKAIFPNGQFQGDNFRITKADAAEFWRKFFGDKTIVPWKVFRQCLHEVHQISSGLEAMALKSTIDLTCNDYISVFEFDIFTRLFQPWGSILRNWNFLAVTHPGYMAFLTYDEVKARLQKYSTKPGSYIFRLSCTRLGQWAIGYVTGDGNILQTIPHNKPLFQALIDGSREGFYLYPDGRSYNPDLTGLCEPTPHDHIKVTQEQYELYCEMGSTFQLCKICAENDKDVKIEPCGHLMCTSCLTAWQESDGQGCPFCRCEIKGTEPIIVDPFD

`Cn1cnnc1C(F)[C@@](C)(F)c1cccc(N2Cc3c(cccc3C(F)(F)F)C2=O)c1` (stereo in doubt) [Compound 478b, 2-(3-((1R,2S)-1,2-difluoro-1-(4-methyl-4H-1,2,4-triazol-3-yl)propan-2-yl)phenyl)-4-(trifluoromethyl)isoindolin-1-one]: the IC50 under setting [1] lay in the range of 1 to 3 µM. For `Cc1ccc2cc(C(=O)Nc3cccc(C(C)Sc4nncn4C)c3)cnc2c1` (centres unmarked) [Compound 15, 7-Methyl-N-(3-(1-(4-methyl-4H-1,2,4-triazol-3-ylthio)ethyl)phenyl)quinoline-3-carboxamide], under setting [2], the IC50 is more than 10 µM. On the same count and under the same terms, for `CC(Sc1nncn1C)c1cccc(NC(=O)c2ccc3ccc(Cl)cc3n2)c1` (centres unmarked) [Compound 16, 7-Chloro-N-(3-(1-((4-methyl-4H-1,2,4-triazol-3-yl)thio)ethyl)phenyl)quinoline-2-carboxamide] the value was 3 to 10 µM; for `CC(Sc1nncn1C)c1cccc(NC(=O)c2ccc3cccnc3n2)c1` (centres unmarked) [Compound 18, N-(3-(1-((4-Methyl-4H-1,2,4-triazol-3-yl)thio)ethyl)phenyl)-1,8-naphthyridine-2-carboxamide], 3 to 10 µM; for `CC(Sc1nncn1C)c1cccc(NC(=O)c2cc3ccncc3cn2)c1` (centres unmarked) [Compound 19, N-(3-(1-((4-Methyl-4H-1,2,4-triazol-3-yl)thio)ethyl)phenyl)-2,7-naphthyridine-3-carboxamide], 3 to 10 µM. Regarding `CC(Sc1nncn1C)c1cccc(NC(=O)c2ccc3ncccc3n2)c1` (centres unmarked) [Compound 20, N-(3-(1-((4-Methyl-4H-1,2,4-triazol-3-yl)thio)ethyl)phenyl)-1,5-naphthyridine-2-carboxamide], the IC50 under setting [2] lay within 3 to 10 µM. On to `Cc1ccc2ccc(C(=O)Nc3cccc(C(C)Sc4nncn4C)c3)nc2n1` (centres unmarked) [Compound 21, 7-Methyl-N-(3-(1-((4-methyl-4H-1,2,4-triazol-3-yl)thio)ethyl)phenyl)-1,8-naphthyridine-2-carboxamide], for which the IC50 under setting [2] is more than 10 µM. On to `CC(Sc1nncn1C)c1cccc(NC(=O)c2cc3ccccc3c(=O)[nH]2)c1` (centres unmarked) [Compound 22, N-(3-(1-((4-Methyl-4H-1,2,4-triazol-3-yl)thio)ethyl)phenyl)-1-oxo-1,2-dihydroisoquinoline-3-carboxamide], for which the IC50 under setting [2] was more than 10 µM. As to `CC(Sc1nncn1C)c1cccc(NC(=O)c2cc3c(cn2)CCCC3)c1` (centres unmarked) [Compound 24, N-(3-(1-((4-Methyl-4H-1,2,4-triazol-3-yl)thio)ethyl)phenyl)-5,6,7,8-tetrahydroisoquinoline-3-carboxamide], the IC50 under setting [2] lay in the range of 3 to 10 µM. Take `CC(Sc1nncn1C)c1cccc(NC(=O)c2cc3ccc(Cl)cc3cn2)c1` (centres unmarked) [Compound 25, 7-Chloro-N-(3-(1-((4-methyl-4H-1,2,4-triazol-3-yl)thio)ethyl)phenyl)isoquinoline-3-carboxamide]: the IC50 under setting [2] fell in the range of 1 to 3 µM.

Turning to `Cc1ccc(C(=O)Nc2cccc([C@H](C)Sc3nncn3C)c2)cc1C` [Compound 27, (S)-3,4-Dimethyl-N-(3-(1-((4-methyl-4H-1,2,4-triazol-3-yl)thio)ethyl)phenyl)benzamide], the IC50 under setting [2] fell in the range of 3 to 10 µM. For `Cc1cc(C(=O)Nc2cccc([C@H](C)Sc3nncn3C)c2)ccc1Cl` [Compound 28, (S)-4-Chloro-3-methyl-N-(3-(1-((4-methyl-4H-1,2,4-triazol-3-yl)thio)ethyl)phenyl)benzamide], the IC50 under setting [2] fell in the range of 1 to 3 µM.

For the molecule `Cc1cnc(C(=O)Nc2cccc([C@H](C)Sc3nncn3C)c2)cc1C` [Compound 36, (S)-4,5-Dimethyl-N-(3-(1-((4-methyl-4H-1,2,4-triazol-3-yl)thio)ethyl)phenyl)picolinamide], under setting [2], the IC50 lay in the range of 1 to 3 µM. Still for that read-out and setting: for `CC(C)c1ccnc(C(=O)Nc2cccc([C@H](C)Sc3nncn3C)c2)c1` [Compound 37, (S)-4-Isopropyl-N-(3-(1-((4-methyl-4H-1,2,4-triazol-3-yl)thio)ethyl)phenyl)picolinamide] the value was 3 to 10 µM; for `CC(Sc1nccn1C)c1cccc(NC(=O)c2cc3ccccc3cn2)c1` (centres unmarked) [Compound 100, N-[3-[1-(1-methylimidazol-2-yl)sulfanylethyl]phenyl]isoquinoline-3-carboxamide], 3 to 10 µM; for `CC(Sc1nccn1C)c1ccc(F)c(NC(=O)c2cccc(C(F)(F)F)n2)c1` (centres unmarked) [Compound 101, N-[2-fluoro-5-[1-(1-methylimidazol-2-yl)sulfanylethyl]phenyl]-6-(trifluoro-methyl)pyridine-2-carboxamide], 3 to 10 µM. Still for that read-out and setting: for `C[C@@H](Sc1nncn1C)c1ccnc(NC(=O)c2cccc(C(F)(F)F)n2)c1` [Compound 102a, (R)-N-(4-(1-((4-methyl-4H-1,2,4-triazol-3-yl)thio)ethyl)pyridin-2-yl)-6-(trifluoromethyl)picolinamide] the value was 3 to 10 µM. The same measure, in the same setting: for `CC(Sc1nncn1C)c1cc(CO)cc(NC(=O)c2ccc3ccccc3n2)c1` (centres unmarked) [Compound 132, N-(3-(hydroxymethyl)-5-(1-(4-methyl-4H-1,2,4-triazol-3-ylthio)ethyl)phenyl)quinoline-2-carboxamide] the value was more than 10 µM; for `CC(Sc1nncn1C)c1cccc(N2Cc3ccccc3C2=O)c1` (centres unmarked) [Compound 162, 2-[3-[1-[(4-methyl-1,2,4-triazol-3-yl)sulfanyl]ethyl]phenyl]isoindolin-1-one], 3 to 10 µM. On to `CC(Sc1nncn1C)c1cccc(N2Cc3c(cccc3C(F)(F)F)C2=O)c1` (centres unmarked) [Compound 166, 2-(3-(1-((4-methyl-4H-1,2,4-triazol-3-yl)thio)ethyl)phenyl)-4-(trifluoromethyl)isoindolin-1-one], for which the IC50 under setting [2] lay within 0.301 to 1 µM.

On to `C[C@@H](Sc1nncn1C)c1ccc(F)c(N2Cc3c(cccc3C(F)(F)F)C2=O)c1` [Compound 170, 2-[2-Fluoro-5-[(1R)-1-[(4-methyl-1,2,4-triazol-3-yl)sulfanyl]ethyl]phenyl]-4-(trifluoromethyl)isoindolin-1-one], for which the IC50 under setting [1] is more than 10 µM.

Regarding `CC(Sc1nncn1C)c1ccnc(N2Cc3ccccc3C2=O)c1` (centres unmarked) [Compound 171, 2-(4-(1-((4-methyl-4H-1,2,4-triazol-3-yl)thio)ethyl)pyridin-2-yl)isoindolin-1-one], the IC50 under setting [2] lay within 3 to 10 µM. For the molecule `C[C@@H](Cc1n[nH]cc1CO)c1cccc(N2Cc3c(cccc3C(F)(F)F)C2=O)c1` [Compound 271a, (S)-2-(3-(1-(4-(hydroxymethyl)-1H-pyrazol-3-yl)propan-2-yl)phenyl)-4-(trifluoromethyl)isoindolin-1-one], the half-maximal inhibitory concentration (IC50) under setting [1] is more than 10 µM. Still for that read-out and setting: for `Cc1[nH]cnc1C[C@@H](C)c1cccc(N2Cc3c(cccc3C(F)(F)F)C2=O)c1` [Compound 272a, 2-[3-[(2R)-1-(5-methyl-1H-imidazol-4-yl)propan-2-yl]phenyl]-4-(trifluoromethyl)isoindolin-1-one] the value was 0.1 to 0.3 µM; for `Cc1cnnn1C[C@H](C)c1cccc(NC(=O)c2cccc(C(F)(F)F)n2)c1` [Compound 312b, (R)-N-(3-(1-(5-methyl-1H-1,2,3-triazol-1-yl)propan-2-yl)phenyl)-6-(trifluoromethyl)picolinamide], 1 to 3 µM; for `C[C@H](Cc1nncn1C)c1cc(NC2(C)COC2)nc(N2Cc3c(cccc3C(F)(F)F)C2=O)c1` [Compound 349, 2-{4-[(2R)-1-(4-methyl-4H-1,2,4-triazol-3-yl)propan-2-yl]-6-[(3-methyloxetan-3-yl)amino]pyridin-2-yl}-4-(trifluoromethyl)-2,3-dihydro-1H-isoindol-1-one], 0.301 to 1 µM.

Usually IC50 stands for the concentration that inhibits the measured activity by half.
